Data: the CheMixHub viscosity set
Where “and” joins values, the source holds several entries; their conditions need not be identical. Identical values can stand only once. ± gives the uncertainty stated by the source.

Assay: xn = mol fraction of the nth substance listed

`CN(C)C=O` + CO gave a viscosity (293.15 K, 101 kPa, x2 = 0.0998) of 0.835 ± 0.012 mPa·s, a viscosity (293.15 K, 101 kPa, x2 = 0.2) of 0.809 ± 0.011 mPa·s and a viscosity (293.15 K, 101 kPa, x2 = 0.3) of 0.782 ± 0.011 mPa·s. The viscosity (293.15 K, 101 kPa, x2 = 0.4002) was 0.754 ± 0.011 mPa·s, the viscosity (293.15 K, 101 kPa, x2 = 0.5) was 0.723 ± 0.011 mPa·s and the viscosity (293.15 K, 101 kPa, x2 = 0.6) was 0.693 ± 0.01 mPa·s. The viscosity (293.15 K, 101 kPa, x2 = 0.6997) was 0.665 ± 0.01 mPa·s, the viscosity (293.15 K, 101 kPa, x2 = 0.8) was 0.64 ± 0.01 mPa·s and the viscosity (293.15 K, 101 kPa, x2 = 0.8998) was 0.613 ± 0.01 mPa·s. For the same molecule, the viscosity (298 K, 101.3 kPa, x2 = 0.1198) was 0.766 ± 0.011 mPa·s, the viscosity (298 K, 101.3 kPa, x2 = 0.2267) was 0.739 ± 0.01 mPa·s and the viscosity (298 K, 101.3 kPa, x2 = 0.4094) was 0.693 ± 0.01 mPa·s. For the same molecule, the viscosity (298 K, 101.3 kPa, x2 = 0.5596) was 0.655 ± 0.009 mPa·s, the viscosity (298 K, 101.3 kPa, x2 = 0.6854) was 0.623 ± 0.009 mPa·s and the viscosity (298 K, 101.3 kPa, x2 = 0.7922) was 0.596 ± 0.009 mPa·s. It also gave a viscosity (298 K, 101.3 kPa, x2 = 0.884) of 0.573 ± 0.008 mPa·s, a viscosity (298 K, 101.3 kPa, x2 = 0.9639) of 0.553 ± 0.008 mPa·s and a viscosity (298.15 K, 101 kPa, x1 = 0.3048) of 0.568 ± 0.16 mPa·s. For the same molecule, the viscosity (298.15 K, 101 kPa, x2 = 0.0998) was 0.782 ± 0.011 mPa·s, the viscosity (298.15 K, 101 kPa, x2 = 0.2) was 0.758 ± 0.011 mPa·s and the viscosity (298.15 K, 101 kPa, x2 = 0.3) was 0.734 ± 0.011 mPa·s. For the same molecule, the viscosity (298.15 K, 101 kPa, x2 = 0.4002) was 0.705 ± 0.011 mPa·s, the viscosity (298.15 K, 101 kPa, x2 = 0.5) was 0.678 ± 0.01 mPa·s and the viscosity (298.15 K, 101 kPa, x2 = 0.6) was 0.649 ± 0.01 mPa·s. For the same molecule, the viscosity (298.15 K, 101 kPa, x2 = 0.6997) was 0.622 ± 0.01 mPa·s, the viscosity (298.15 K, 101 kPa, x2 = 0.8) was 0.596 ± 0.01 mPa·s and the viscosity (298.15 K, 101 kPa, x2 = 0.8998) was 0.572 ± 0.01 mPa·s. For the same molecule, the viscosity (303.15 K, 101 kPa, x1 = 0.0995) was 0.5458 ± 0.0048 mPa·s, the viscosity (303.15 K, 101 kPa, x1 = 0.2004) was 0.5714 ± 0.0051 mPa·s and the viscosity (303.15 K, 101 kPa, x1 = 0.3004) was 0.5986 ± 0.0053 mPa·s. The viscosity (303.15 K, 101 kPa, x1 = 0.3993) was 0.6269 ± 0.0056 mPa·s, the viscosity (303.15 K, 101 kPa, x1 = 0.5008) was 0.6547 ± 0.0059 mPa·s and the viscosity (303.15 K, 101 kPa, x1 = 0.5728) was 0.6716 ± 0.006 mPa·s. The viscosity (303.15 K, 101 kPa, x1 = 0.6998) was 0.7023 ± 0.0064 mPa·s, the viscosity (303.15 K, 101 kPa, x1 = 0.8014) was 0.7263 ± 0.0068 mPa·s and the viscosity (303.15 K, 101 kPa, x1 = 0.8996) was 0.7515 ± 0.0071 mPa·s. The viscosity (303.15 K, 101 kPa, x2 = 0.0998) was 0.736 ± 0.011 mPa·s, the viscosity (303.15 K, 101 kPa, x2 = 0.2) was 0.713 ± 0.011 mPa·s and the viscosity (303.15 K, 101 kPa, x2 = 0.3) was 0.688 ± 0.01 mPa·s. The viscosity (303.15 K, 101 kPa, x2 = 0.4002) was 0.663 ± 0.01 mPa·s, the viscosity (303.15 K, 101 kPa, x2 = 0.5) was 0.674 ± 0.017 mPa·s and 0.636 ± 0.01 mPa·s and the viscosity (303.15 K, 101 kPa, x2 = 0.6) was 0.608 ± 0.01 mPa·s. It also gave a viscosity (303.15 K, 101 kPa, x2 = 0.6997) of 0.584 ± 0.01 mPa·s, a viscosity (303.15 K, 101 kPa, x2 = 0.8) of 0.559 ± 0.009 mPa·s and a viscosity (303.15 K, 101 kPa, x2 = 0.8998) of 0.534 ± 0.009 mPa·s. It also gave a viscosity (308.15 K, 101 kPa, x1 = 0.0995) of 0.5094 ± 0.0046 mPa·s, a viscosity (308.15 K, 101 kPa, x1 = 0.2004) of 0.5345 ± 0.0048 mPa·s and a viscosity (308.15 K, 101 kPa, x1 = 0.3004) of 0.5606 ± 0.005 mPa·s. It also gave a viscosity (308.15 K, 101 kPa, x1 = 0.3993) of 0.5882 ± 0.0053 mPa·s, a viscosity (308.15 K, 101 kPa, x1 = 0.5008) of 0.6152 ± 0.0056 mPa·s and a viscosity (308.15 K, 101 kPa, x1 = 0.5728) of 0.6314 ± 0.0057 mPa·s. The viscosity (308.15 K, 101 kPa, x1 = 0.6998) was 0.6621 ± 0.0061 mPa·s, the viscosity (308.15 K, 101 kPa, x1 = 0.8014) was 0.6853 ± 0.0064 mPa·s and the viscosity (308.15 K, 101 kPa, x1 = 0.8996) was 0.7087 ± 0.0068 mPa·s. The viscosity (313.15 K, 101 kPa, x1 = 0.0995) was 0.4776 ± 0.0044 mPa·s, the viscosity (313.15 K, 101 kPa, x1 = 0.2004) was 0.5008 ± 0.0046 mPa·s and the viscosity (313.15 K, 101 kPa, x1 = 0.3004) was 0.5259 ± 0.0048 mPa·s. It also gave a viscosity (313.15 K, 101 kPa, x1 = 0.3993) of 0.5524 ± 0.005 mPa·s, a viscosity (313.15 K, 101 kPa, x1 = 0.5008) of 0.5781 ± 0.0053 mPa·s and a viscosity (313.15 K, 101 kPa, x1 = 0.5728) of 0.5933 ± 0.0055 mPa·s. It also gave a viscosity (313.15 K, 101 kPa, x1 = 0.6998) of 0.6213 ± 0.0058 mPa·s, a viscosity (313.15 K, 101 kPa, x1 = 0.8014) of 0.644 ± 0.0061 mPa·s and a viscosity (313.15 K, 101 kPa, x1 = 0.8996) of 0.667 ± 0.0064 mPa·s. The viscosity (313.15 K, 101 kPa, x2 = 0.0998) was 0.655 ± 0.01 mPa·s, the viscosity (313.15 K, 101 kPa, x2 = 0.2) was 0.635 ± 0.01 mPa·s and the viscosity (313.15 K, 101 kPa, x2 = 0.3) was 0.612 ± 0.01 mPa·s. The viscosity (313.15 K, 101 kPa, x2 = 0.4002) was 0.589 ± 0.01 mPa·s, the viscosity (313.15 K, 101 kPa, x2 = 0.5) was 0.58 ± 0.015 mPa·s and 0.565 ± 0.009 mPa·s and the viscosity (313.15 K, 101 kPa, x2 = 0.6) was 0.54 ± 0.009 mPa·s. It also gave a viscosity (313.15 K, 101 kPa, x2 = 0.6997) of 0.517 ± 0.009 mPa·s, a viscosity (313.15 K, 101 kPa, x2 = 0.8) of 0.493 ± 0.009 mPa·s and a viscosity (313.15 K, 101 kPa, x2 = 0.8998) of 0.47 ± 0.009 mPa·s. It also gave a viscosity (318.15 K, 101 kPa, x1 = 0.0995) of 0.4467 ± 0.0041 mPa·s, a viscosity (318.15 K, 101 kPa, x1 = 0.2004) of 0.4692 ± 0.0043 mPa·s and a viscosity (318.15 K, 101 kPa, x1 = 0.3004) of 0.4936 ± 0.0045 mPa·s. The viscosity (318.15 K, 101 kPa, x1 = 0.3993) was 0.5191 ± 0.0048 mPa·s, the viscosity (318.15 K, 101 kPa, x1 = 0.5008) was 0.5439 ± 0.005 mPa·s and the viscosity (318.15 K, 101 kPa, x1 = 0.5728) was 0.5587 ± 0.0052 mPa·s. It also gave a viscosity (318.15 K, 101 kPa, x1 = 0.6998) of 0.5861 ± 0.0055 mPa·s, a viscosity (318.15 K, 101 kPa, x1 = 0.8014) of 0.6075 ± 0.0058 mPa·s and a viscosity (318.15 K, 101 kPa, x1 = 0.8996) of 0.6304 ± 0.0061 mPa·s. The viscosity (323.15 K, 101 kPa, x1 = 0.0995) was 0.4174 ± 0.0039 mPa·s, the viscosity (323.15 K, 101 kPa, x1 = 0.2004) was 0.4387 ± 0.0041 mPa·s and the viscosity (323.15 K, 101 kPa, x1 = 0.3004) was 0.4617 ± 0.0043 mPa·s. The viscosity (323.15 K, 101 kPa, x1 = 0.3993) was 0.4864 ± 0.0045 mPa·s, the viscosity (323.15 K, 101 kPa, x1 = 0.5008) was 0.51 ± 0.0048 mPa·s and the viscosity (323.15 K, 101 kPa, x1 = 0.5728) was 0.5243 ± 0.0049 mPa·s. It also gave a viscosity (323.15 K, 101 kPa, x1 = 0.6998) of 0.5501 ± 0.0052 mPa·s, a viscosity (323.15 K, 101 kPa, x1 = 0.8014) of 0.5705 ± 0.0055 mPa·s and a viscosity (323.15 K, 101 kPa, x1 = 0.8996) of 0.5923 ± 0.0058 mPa·s. For the same molecule, the viscosity (323.15 K, 101 kPa, x2 = 0.0998) was 0.588 ± 0.01 mPa·s, the viscosity (323.15 K, 101 kPa, x2 = 0.2) was 0.569 ± 0.009 mPa·s and the viscosity (323.15 K, 101 kPa, x2 = 0.3) was 0.549 ± 0.009 mPa·s. For the same molecule, the viscosity (323.15 K, 101 kPa, x2 = 0.4002) was 0.528 ± 0.009 mPa·s, the viscosity (323.15 K, 101 kPa, x2 = 0.5) was 0.503 ± 0.014 mPa·s and 0.506 ± 0.009 mPa·s and the viscosity (323.15 K, 101 kPa, x2 = 0.6) was 0.483 ± 0.009 mPa·s. For the same molecule, the viscosity (323.15 K, 101 kPa, x2 = 0.6997) was 0.46 ± 0.009 mPa·s, the viscosity (323.15 K, 101 kPa, x2 = 0.8) was 0.438 ± 0.008 mPa·s and the viscosity (323.15 K, 101 kPa, x2 = 0.8998) was 0.415 ± 0.008 mPa·s.
